In patent publication EP1268431B1 (Wyeth, priority 2000, dated 2001):

Experiments:
[1] = system: Rat2 fibroblasts stably transformed with a plasmid containing a CMV promotor controlled v-Src/Hu c-Src fusion gene; assay: Anchorage Independent Src-transformed Fibroblast Proliferation Assay; conditions: Rattus norvegicus, Rat2, 120 h, read-out: anch-indep src-tx fib IC50, suspension growth, MTS on Day 5
c-Src = target: T1, c-Src (Homo sapiens, UniProt P12931); assay: c-Src Kinase Assay (ELISA format); assay type: biochemical
T1 construct: purchased Upstate Biotechnologies
Summary of the method: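 Partially purified Src preincubated with compound and biotinylated peptide 10 min at 30 °C in Tris-HCl pH 7.5 with MgCl2, EGTA, vanadate; ATP-started reaction ran 1 h at 30 °C, EDTA-stopped. Phosphopeptide captured on streptavidin, detected by HRP anti-phosphotyrosine; % inhibition = (1 − Abs/Abs(max)) × 100.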

T1 sequence (P12931 whole entry, species assumed): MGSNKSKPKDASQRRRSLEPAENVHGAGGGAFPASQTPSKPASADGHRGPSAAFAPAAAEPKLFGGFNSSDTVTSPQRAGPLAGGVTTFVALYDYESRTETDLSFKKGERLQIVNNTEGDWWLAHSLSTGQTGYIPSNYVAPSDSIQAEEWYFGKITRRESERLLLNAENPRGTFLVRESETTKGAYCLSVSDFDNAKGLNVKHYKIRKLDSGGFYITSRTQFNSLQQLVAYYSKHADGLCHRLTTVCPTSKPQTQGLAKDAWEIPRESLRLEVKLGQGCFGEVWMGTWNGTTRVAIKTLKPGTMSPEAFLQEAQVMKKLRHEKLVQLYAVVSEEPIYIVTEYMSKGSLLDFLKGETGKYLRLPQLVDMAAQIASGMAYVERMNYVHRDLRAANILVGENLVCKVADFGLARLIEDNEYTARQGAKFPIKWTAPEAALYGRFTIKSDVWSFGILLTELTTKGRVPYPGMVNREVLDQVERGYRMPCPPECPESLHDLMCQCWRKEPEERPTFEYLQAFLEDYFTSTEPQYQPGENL

Row | Structure (SMILES) | IC50 [1] | IC50 (c-Src)
1 | COc1cc(Nc2c(C#N)cnc3cc(-c4cccc(N)c4)ccc23)c(Cl)cc1Cl [Example 174, 7-(3-aminophenyl)-4-(2,4-dichloro-5-methoxyanilino)-3-quinolinecarbonitrile] | 5600 nM | 95 nM
2 | COC(=O)C1CCN(Cc2ccc(-c3ccc4c(Nc5cc(OC)c(Cl)cc5Cl)c(C#N)cnc4c3)nc2)CC1 [Example 176, 1-{6-[3-cyano-4-(2,4-dichloro-5-methoxyphenylamino)-quinolin-7-yl]-pyridin-3-ylmethyl}piperidine-4-carboxylic acid methyl ester] | 90 nM | 1.7 nM
3 | CCN1CCN(c2ccc(-c3ccc4c(Nc5cc(OC)c(Cl)cc5Cl)c(C#N)cnc4c3)nc2)CC1 [Example 179, 4-[(2,4-dichloro-5-methoxyphenyl)amino]-7-[5-(4-ethyl-1-piperazinyl)-2-pyridinyl]-3-quinolinecarbonitrile] | 270 nM | 0.23 nM
4 | COc1cc(Nc2c(C#N)cnc3cc(-c4cnc(N5CCOCC5)nc4)ccc23)c(Cl)cc1Cl [Example 186, 4-(2,4-dichloro-5-methoxyanilino)-7-[2-(4-morpholinyl)-5-pyrimidinyl]-3-quinolinecarbonitrile] | > 10000 nM | 30 nM
5 | COc1cc(Nc2c(C#N)cnc3cc(-c4csc(CN5CCC(O)CC5)c4)ccc23)c(Cl)cc1Cl [Example 192, 4-(2,4-dichloro-5-methoxyanilino)-7-{5-[(4-hydroxy-1-piperidnyl)methyl]-3-thienyl}-3-quinolinecarbonitrile] | 170 nM | 2.1 nM
6 | COc1cc(Nc2c(C#N)cnc3cc(-c4ccc(Oc5ccc(CN6CCOCC6)cc5)nc4)ccc23)c(Cl)cc1Cl [Example 193, 4-(2,4-dichloro-5-methoxyanilino)-7-{6-[4-(4-morpholinylmethyl)phenoxy]-3-pyridinyl)-3-quinolinecarbonitrile] | > 10000 nM | 34 nM
7 | COc1ccc(-c2ccc3c(Nc4cc(OC)c(Cl)cc4Cl)c(C#N)cnc3c2)cc1 [Example 194, 4-(2,4-dichloro-5-methoxyanilino)-7-(4-methoxyphenyl)-3-quinolinecarbonitrile] | > 10000 nM | 12 nM
8 | COc1cc(Nc2c(C#N)cnc3cc(-c4cnc(C=O)n4C)c(OC)cc23)c(Cl)cc1Cl [Example 228, 4-(2,4-dichloro-5-methoxyanilino)-7-(2-formyl-1-methyl-1H-imidazol-5-yl)-6-methoxy-3-quinolinecarbonitrile] | > 10000 nM | 46 nM
9 | COc1cc(Nc2c(C#N)cnc3cc(-c4ccc(CNCCc5ccccn5)cc4)ccc23)c(Cl)cc1Cl [Example 229, 4-(2,4-dichloro-5-methoxyanilino)-7-[4-({[2-(2-pyridinyl)ethyl]amino}methyl)phenyl]-3-quinolinecarbonitrile] | 450 nM | 2.3 nM
10 | COC(=O)C1CCN(Cc2ccc(-c3ccc4c(Nc5cc(OC)c(Cl)cc5Cl)c(C#N)cnc4c3)cc2)CC1 [Example 231, methyl 1-{4-[3-cyano-4-(2,4-dichloro-5-methoxy-anilino)-7-quinolinyl]benzyl}-4-piperidinecarboxylate] | 390 nM | 6.8 nM
11 | COc1cc(Nc2c(C#N)cnc3cc(-c4cnc(CN5CCOCC5)n4C)c(OC)cc23)c(Cl)cc1Cl [Example 232, 4-(2,4-dichloro-5-methoxyanilino)-6-methoxy-7-[1-methyl-2-(4-morpholinylmethyl)-1H-imidazol-5-yl]-3-quinolinecarbonitrile] | 3500 nM | 78 nM
12 | COc1cc(Nc2c(C#N)cnc3cc(-c4ccc(CN5CCOCC5)cc4)ccc23)c(Cl)cc1C [Example 234, 4-(2-chloro-5-methoxy-4-methylanilino)-7-[4-(4-morpholinylmethyl)phenyl]-3-quinolinecarbonitrile] | 720 nM | 7.2 nM
